The structures appear in SMILES notation. Where “and” joins values, the source holds several entries; their conditions need not be identical. Identical values can stand only once.

For the molecule `O=C1CCC(=O)N1Br` [n-bromosuccinimide], the melting point – broadly, the temperature of the solid-liquid transition – is 180 °C.
The same measure for `C=Cc1ccc(B(O)O)cc1` [4-vinylbenzeneboronic acid]: 190 °C; for `Fc1ccccc1` [Fluorobenzene]: -40 °C; for `Cc1cc(=O)n(-c2ccccc2)n1C` [antipyrine]: 113 °C.
`NC(=O)c1ccccc1Cc1ccccc1` [o-benzylbenzamide]: the melting point is 165 °C.
With `O=C(O)Cc1ccc(O)c(O)c1` [3,4-dihydroxyphenylacetic acid], the melting point stood at 129 °C.
In the case of `O=C(O)c1ccc([N+](=O)[O-])cc1` [4-nitrobenzoic acid] it was 240 °C.
Turning to `Cc1ccc(C)c2c1C(=O)NC2=O` [4,7-dimethyl-1H-isoindole-1,3(2H)-dione], the melting point amounted to 224 °C.
The same measure for `O=C1NC(=O)c2cc([N+](=O)[O-])ccc21` [5-Nitro-1H-isoindole-1,3(2H)-dione]: 181 °C; for `CC12CCC3C(CCC4CC(CC(=O)O)=CCC43C)C1CCC2=O` (stereo not drawn) [(17-oxoandrost-2-en-3-yl)acetic acid]: 177 °C; for `Cc1cc(Br)cc(Cl)c1N` [4-bromo-2-chloro-6-methylaniline]: 39 °C.
In the case of `NC(=O)CI` [2-Iodoacetamide] it was 94 °C; in that of `BrCCCCOc1ccccc1` [(4-bromobutoxy)benzene], 42 °C; in that of `NNC(=O)c1cc(Cl)cc(Cl)c1` [3,5-dichlorobenzhydrazide], 206 °C.
As to `O=C(O)[C@@H](O)[C@H](O)C(=O)O` [(2S,3S)-2,3-Dihydroxysuccinic acid], the melting point came out at 173 °C.
In the case of `ClC1(Cl)[C@]2(Cl)C(/Cl)=C(/Cl)[C@@]1(Cl)[C@@H]3[C@@H](Cl)[C@@H](Cl)C[C@H]23` [a-Chlordane, cis-Chlordane] it was 106 °C.
In turn, `CCCCOC(=O)c1ccc(N)cc1` [Butyl 4-aminobenzoate] came in with a melting point of 58 °C.
In the case of `FC(F)(F)c1cccc(Br)n1` [2-bromo-6-(trifluoromethyl)pyridine] it was 50 °C; in that of `O=C(O)CCCCC(=O)O` [adipic_acid], 153 °C.
The same measure for `CC1=CC(=O)CC(C)(C)C1=O` [2,6,6-trimethyl-2-cyclohexene-1,4-dione]: 20 °C; for `CC(C(=O)O)c1ccc(-c2ccccc2)c(F)c1` (stereo not drawn) [Flurbiprofen]: 114 °C; for `O=C(O)/C(=C/c1ccccc1[N+](=O)[O-])c1ccccc1F` [(E)-2-(2-Fluorophenyl)-3-(2-nitrophenyl)propenoic acid]: 212 °C.
The same measure for `CNC(=O)NC` [N,N'-dimethylurea]: 102 °C; for `CC(=O)Nc1ccccc1O` [2-acetamidophenol]: 207 °C.
Consider `ClC(Cl)(Cl)Cl` [tetrachloromethane], for which the melting point was -23 °C.
The same measure for `O=C(Nc1ccccc1)c1ccccc1` [benzanilide]: 164 °C; for `CN(C)c1ccc(C(=O)Cl)cc1` [4-dimethylaminobenzoyl chloride]: 145 °C; for `Cc1ccn(C(N)=O)n1` [3-methyl-1h-pyrazole-1-carboxamide]: 125 °C.
In the case of `O=C(O)c1cc(C(=O)O)c(C(=O)O)cc1C(=O)O` [Pyromellitic Acid] it was 276 °C; in that of `Nc1ccccc1C(O)(c1ccccc1)c1ccccc1` [(2-aminophenyl)(diphenyl)methanol], 122 °C.
In the case of `COc1cc(C(=O)Cl)cc(OC)c1OC` [3,4,5-trimethoxybenzoyl chloride] it was 80 °C; in that of `Cc1ccc(OC(=O)c2ccccc2)cc1` [p-tolyl_benzoate], 70 °C; in that of `O=C(O)c1c(Cl)cccc1Cl` [2,6-Dichlorobenzoic acid], 144 °C.
Take `Nc1cccc(-n2ccccc2=O)c1` [1-(3-Aminophenyl)pyridin-2(1H)-one]: the melting point turned out to be 183 °C.
In the case of `Cc1cc(C)cc(O)c1` [3,5-dimethylphenol] it was 63 °C; in that of `CC(C)OC(C)C` [diisopropyl_ether], -86 °C; in that of `CCCCCCC(O)CCCCCCCCCCC(=O)O` (stereo not drawn) [12-hydroxystearic acid], 75 °C.
The same measure for `C[Si](Cl)(Cl)Cl` [methyltrichlorosilane]: -78 °C; for `CC(=O)Oc1ccc(OC(C)=O)cc1` [hydroquinone_diacetate]: 125 °C; for `COC(=O)c1ccc(O)cc1` [Methyl 4-hydroxybenzoate]: 127 °C.
The same measure for `Nc1c(Br)cc([N+](=O)[O-])cc1Br` [2,6-dibromo-4-nitroaniline]: 207 °C; for `Cc1ccc(C(=O)c2nn(-c3ccccc3)/c(=N\N=C\c3ccco3)s2)cc1`: 114 °C.
`Clc1ccc(-c2ccccc2Cl)cc1` [PCB-8] registered a melting point of 44 °C.
On to `O=C(O)c1ccc(CO)cc1` [p-hydroxymethyl_benzoic_acid], for which the melting point was 182 °C.
`CC(O)C(=O)O` (stereo not drawn) [lactic acid]: the melting point stood at 18 °C.
The same measure for `CC(C)c1ccc(O)cc1` [4-isopropylphenol]: 60 °C; for `Oc1ccc(Br)cc1-c1cc[nH]n1` [4-bromo-2-(1h-pyrazol-3-yl)phenol]: 162 °C; for `C=C(C)C(C)C` [2,3-dimethyl-1-butene]: -157 °C.
The same measure for `CC1(O)CCCC1` [1-methylcyclopentanol]: 37 °C.
Regarding `COc1ccc2cc(C(C)CO)ccc2c1` (stereo not drawn) [naproxol], the melting point was 87 °C.
In the case of `ClC(Cl)=C(Cl)Cl` [tetrachloroethylene] it was -22 °C; in that of `CCOC(=O)c1ccccn1` [ethyl picolinate], 2 °C.
The same measure for `CC(=O)N/C=C/c1ccccc1[N+](=O)[O-]` [N-[(E)-2-(2-nitrophenyl)ethenyl]acetamide]: 150 °C; for `O=C(/C=C/c1ccc(-c2ccccc2)o1)c1ccco1` [(2E)-1-(2-furyl)-3-(5-phenyl-2-furyl)prop-2-en-1-one]: 100 °C.
Molecule `COc1cc(/C=C/C(=O)CC(=O)/C=C/c2ccc(O)c(OC)c2)ccc1O` showed a melting point of 180 °C.
In the case of `Cc1ccc(C(C)(C)C)cc1` [4-tert-butyltoluene] it was -63 °C.
In the case of `O=[N+]([O-])c1ccccc1B(O)O` [2-nitrobenzeneboronic acid] it was 150 °C.
In the case of `CCOC(=O)C1(c2ccccc2)CCN(CCc2ccc(N)cc2)CC1` [anileridine] it was 83 °C; in that of `Cc1ccc(Cl)c([N+](=O)[O-])c1` [4-chloro-3-nitrotoluene], 7 °C; in that of `CCCCc1ccc(C#Cc2ccc(CCCC)cc2)cc1` [1-n-butyl-4-[(4-butylphenyl)ethynyl]benzene], 41 °C.
For `CCCCI` [1-Iodobutane], the melting point was -103 °C.
The same measure for `O=C(O)c1ccccc1` [benzoic acid]: 122 °C (5×) and 123 °C (2×); for `O=C(O)c1ccccc1Nc1cccc(C(F)(F)F)c1` [Flufenamic Acid]: 125 °C.

These data come from the Bradley open melting point set (2014).
